Like-named read-outs stand apart in the source and are kept apart here. A value given as a limit tells only on which side of the number the result lay.

The subject of one assay is PC-3 cells. Put plainly: Cell Proliferation Assay (Cell Titer Glo), PC-3 cell line. Type of assay: cell-based. The following applies: Homo sapiens, read-out: CPEC50 PC3. A digest of the protocol: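 PC-3 cells, 1000 cells/well, left to adhere 3-5 h, then exposed for 3 days at 37° C to compounds as 1:3 serial dilutions from 500× DMSO stocks diluted in growth medium. Medium then replaced with fresh medium and viability read by Cell Titer Glo luminescence.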
For orientation: ATP-based viability assays read luminescence as a measure of living cells.

Another assay deals with T1, PDK1 kinase (Homo sapiens, UniProt O15530).
T1 sequence (O15530 1-556): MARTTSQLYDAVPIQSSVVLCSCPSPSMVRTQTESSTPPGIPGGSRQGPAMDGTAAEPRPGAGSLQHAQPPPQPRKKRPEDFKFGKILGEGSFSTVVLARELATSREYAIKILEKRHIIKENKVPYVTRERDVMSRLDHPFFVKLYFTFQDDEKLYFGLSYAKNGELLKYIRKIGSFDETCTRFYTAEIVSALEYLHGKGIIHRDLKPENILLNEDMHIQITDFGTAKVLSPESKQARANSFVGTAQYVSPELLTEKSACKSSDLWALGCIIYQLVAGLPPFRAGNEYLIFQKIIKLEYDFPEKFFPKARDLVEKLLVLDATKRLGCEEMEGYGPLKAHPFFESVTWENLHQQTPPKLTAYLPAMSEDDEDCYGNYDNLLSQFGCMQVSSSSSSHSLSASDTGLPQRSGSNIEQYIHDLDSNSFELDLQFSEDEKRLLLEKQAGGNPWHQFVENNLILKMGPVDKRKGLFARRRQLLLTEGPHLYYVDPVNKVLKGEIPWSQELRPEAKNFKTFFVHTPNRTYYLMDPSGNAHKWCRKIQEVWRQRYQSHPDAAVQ
Put plainly: PDK1 Kinase Alpha Screen Assay. Type of assay: biochemical. The following applies: read-out: PDK1 IC50. A digest of the protocol: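 Biotinylated PDK1-4 peptide (50 nM) phosphorylated by PDK1 with 10 uM ATP in pH 7.5 Tris/MgCl2/DTT buffer, 2.5% DMSO, for 3-18 hours. EDTA stop, then AlphaScreen detection with phospho-(Ser/Thr) PKA substrate antibody and protein A/streptavidin beads after overnight room-temperature development.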

Setting [1] is: PC-3, Cell Proliferation Assay, PC3 cells.

As to `CC(C)Cn1cc(-c2ccc3cnc(Nc4ccc(S(=O)(=O)NCCN5CCOCC5)cc4)nc3c2)cn1` [Compound 710, 44-(7-(1-isobutyl-1H-pyrazol-4-yl)quinazolin-2-ylamino)-N-(2-morpholinoethyl)benzenesulfonamide], the EC50 with PC-3 cells (setting [1]) is < 5 µM. Moreover, the half-maximal inhibitory concentration (IC50) (in general, the concentration at which inhibition is half-maximal) on PDK1 kinase (PDK1 Kinase Alpha Screen Assay) is < 5 µM.

Take `CC(C)Cn1cc(-c2ccc3cnc(Nc4ccc(S(=O)(=O)NCCN5CCCCC5)cc4)nc3c2)cn1` [Compound 711, 4-(7-(1-isobutyl-1H-pyrazol-4-yl)quinazolin-2-ylamino)-N-(2-(piperidin-1-yl)ethyl)benzenesulfonamide]: the EC50 in the assay with PC-3 cells (setting [1]) was < 5 µM. Also, the 50% inhibitory concentration (IC50) at PDK1 kinase (PDK1 Kinase Alpha Screen Assay) is < 5 µM.

Consider `CC(C)Cn1cc(-c2ccc3cnc(Nc4ccc(S(=O)(=O)NCCN5CCN(C)CC5)cc4)nc3c2)cn1` [Compound 712, 4-(7-(1-isobutyl-1H-pyrazol-4-yl)quinazolin-2-ylamino)-N-(2-(4-methylpiperazin-1-yl)ethyl)benzenesulfonamide], for which, in the assay on PC-3 cells (setting [1]), the EC50 is < 5 µM. Besides, the 50% inhibitory concentration (IC50) on PDK1 kinase (PDK1 Kinase Alpha Screen Assay) was < 5 µM.

In the case of `CC(C)Cn1cc(-c2ccc3cnc(Nc4ccc(S(=O)(=O)NCCN5CCCC5)cc4)nc3c2)cn1` [Compound 713, 4-(7-(1-isobutyl-1H-pyrazol-4-yl)quinazolin-2-ylamino)-N-(2-(pyrrolidin-1-yl)ethyl)benzenesulfonamide], the EC50 in the assay with PC-3 cells (setting [1]) was < 5 µM. Moreover, on PDK1 kinase (PDK1 Kinase Alpha Screen Assay), the 50% inhibitory concentration (IC50) was < 5 µM.

On to `C#Cc1cc2cnc(Nc3ccc(S(N)(=O)=O)cc3)nc2cc1OC1CCN(C(C)C)CC1` [Compound 714, 4-(6-ethynyl-7-(1-isopropylpiperidin-4-yloxy)quinazolin-2-ylamino)benzenesulfonamide], for which, in the assay with PC-3 cells (setting [1]), the EC50 is < 5 µM. The IC50 at PDK1 kinase (PDK1 Kinase Alpha Screen Assay) is < 5 µM.

Regarding `Cn1cc(-c2cc(Cl)cc3cnc(Nc4ccc(S(N)(=O)=O)cc4)nc23)cn1` [Compound 926, 4-(6-chloro-8-(1-methyl-1H-pyrazol-4-yl)quinazolin-2-ylamino)benzenesulfonamide], the EC50 in the assay on PC-3 cells (PC-3, PC3 cells) was < 5 µM. Also, the 50% inhibitory concentration (IC50) on PDK1 kinase is < 5 µM.

On to `NS(=O)(=O)c1ccc(Nc2ncc3cc(Cl)cc(-c4ccc(NCCN5CCCC5)nc4)c3n2)cc1` [Compound 927, 4-(6-choro-8-(6-(2-(pyrrolidin-1-yl)ethylamino)pyridin-3-yl)quinazolin-2-ylamino)benzenesulfonamide], for which, in the assay on PC-3 cells (PC-3, PC3 cells), the EC50 is < 5 µM. The IC50 at PDK1 kinase was < 5 µM.

For the compound `Nc1ncc(-c2cccc3cnc(Nc4ccc(S(N)(=O)=O)cc4)nc23)cc1C(F)(F)F` [Compound 929, 4-(8-(6-amino-5-(trifluoromethyl)pyridin-3-yl)quinazolin-2-ylamino)benzenesulfonamide], the EC50 in the assay on PC-3 cells (PC-3, PC3 cells) is < 5 µM. At PDK1 kinase, the IC50 was < 5 µM.

For the compound `Nc1cc(C(F)(F)F)c(-c2cccc3cnc(Nc4ccc(S(N)(=O)=O)cc4)nc23)cn1` [Compound 930, 4-(8-(6-amino-4-(trifluoromethyl)pyridin-3-yl)quinazolin-2-ylamino)benzenesulfonamide], in the assay with PC-3 cells (PC-3, PC3 cells), the EC50 was < 5 µM. In addition, the IC50 at PDK1 kinase was < 5 µM.

As for `Cn1cc(-c2cccc3cnc(Nc4ccc(S(N)(=O)=O)cc4)nc23)cn1` [Compound 931, 4-(8-(1-methyl-1H-pyrazol-4-yl)quinazolin-2-ylamino)benzenesulfonamide], the EC50 in the assay on PC-3 cells (PC-3, PC3 cells) was in the range of 5 to 10 µM. For the same compound, the half-maximal inhibitory concentration (IC50) at PDK1 kinase was < 5 µM.

Regarding `NS(=O)(=O)c1ccc(Nc2ncc3cccc(CNCCN4CCCC4)c3n2)cc1` [Compound 935, 4-(8-((2-(pyrrolidin-1-yl)ethylamino)methyl)quinazolin-2-ylamino)benzenesulfonamide], the EC50 with PC-3 cells (PC-3, PC3 cells) was in the range of 5 to 10 µM. On PDK1 kinase, the half-inhibitory concentration (IC50) is < 5 µM.

For the compound `CN(C)[C@H]1CCN(Cc2cccc3cnc(Nc4ccc(S(N)(=O)=O)cc4)nc23)C1` [Compound 936, (S)-4-(8-((3-(dimethylamino)pyrrolidin-1-yl)methyl)quinazolin-2-ylamino)benzenesulfonamide], the EC50 in the assay on PC-3 cells (PC-3, PC3 cells) was < 5 µM. At PDK1 kinase, the IC50 was < 5 µM.

Turning to `CN1CCC(NCc2cccc3cnc(Nc4ccc(S(N)(=O)=O)cc4)nc23)CC1` [Compound 937, 4-(8-((1-methylpiperidin-4-ylamino)methyl)quinazolin-2-ylamino)benzenesulfonamide], the EC50 in the assay with PC-3 cells (PC-3, PC3 cells) fell in the range of 5 to 10 µM. Moreover, the IC50 at PDK1 kinase was < 5 µM.

Take `CN(C)[C@@H]1CCN(Cc2cccc3cnc(Nc4ccc(S(N)(=O)=O)cc4)nc23)C1` [Compound 938, (R)-4-(8-((3-(dimethylamino)pyrrolidin-1-yl)methyl)quinazolin-2-ylamino)benzenesulfonamide]: the EC50 with PC-3 cells (PC-3, PC3 cells) lay within 5 to 10 µM. Also, the IC50 on PDK1 kinase is < 5 µM.

With `Cc1ccc(-c2ccc3cnc(Nc4ccc(S(N)(=O)=O)cc4)nc3c2)c(F)n1` [Compound 939, 4-(7-(2-fluoro-6-methylpyridin-3-yl)quinazolin-2-ylamino)benzenesulfonamide], in the assay on PC-3 cells (PC-3, PC3 cells), the EC50 was < 5 µM. Also, the IC50 at PDK1 kinase was < 5 µM.

Take `CC(C)N1CCC(c2c(O)ccc3cnc(Nc4ccc(F)cc4)nc23)CC1` [Compound 940, 2-(4-fluorophenylamino)-8-(1-isopropylpiperidin-4-yl)quinazolin-7-ol]: in the assay with PC-3 cells (PC-3, PC3 cells), the EC50 was 5 to 10 µM. Besides, the IC50 at PDK1 kinase is < 5 µM.

As for `NS(=O)(=O)c1ccc(Nc2ncc3cccc(-c4cncc(CN5CCCC5)c4)c3n2)cc1` [Compound 941, 4-(8-(5-(pyrrolidin-1-ylmethyl)pyridin-3-yl)quinazolin-2-ylamino)benzenesulfonamide], the EC50 with PC-3 cells (PC-3, PC3 cells) was < 5 µM. Moreover, the IC50 on PDK1 kinase was < 5 µM.

In the case of `NS(=O)(=O)c1ccc(Nc2ncc3cccc(-c4cncc(CN5CCOCC5)c4)c3n2)cc1` [Compound 942, 4-(8-(5-(morpholinomethyl)pyridin-3-yl)quinazolin-2-ylamino)benzenesulfonamide], the EC50 in the assay with PC-3 cells (PC-3, PC3 cells) is < 5 µM. At PDK1 kinase, the IC50 was < 5 µM.

Turning to `CN1CCN(Cc2cncc(-c3cccc4cnc(Nc5ccc(S(N)(=O)=O)cc5)nc34)c2)CC1` [Compound 943, 4-(8-(5-((4-methylpiperazin-1-yl)methyl)pyridin-3-yl)quinazolin-2-ylamino)benzenesulfonamide], in the assay on PC-3 cells (PC-3, PC3 cells), the EC50 is < 5 µM. The 50% inhibitory concentration (IC50) at PDK1 kinase was < 5 µM.

Turning to `NS(=O)(=O)c1ccc(Nc2ncc3cccc(-c4cncc(CN5CCNC(=O)C5)c4)c3n2)cc1` [Compound 944, 4-(8-(5-((3-oxopiperazin-1-yl)methyl)pyridin-3-yl)quinazolin-2-ylamino)benzenesulfonamide], the EC50 in the assay on PC-3 cells (PC-3, PC3 cells) lay in the range of 5 to 10 µM. Also, the IC50 at PDK1 kinase was < 5 µM.

`Cn1cc(-c2ccc3cnc(Nc4ccc(S(N)(=O)=O)cc4)nc3c2-c2ccc(NCCN3CCCC3)nc2)cn1` [Compound 945, 4-(7-(1-methyl-1H-pyrazol-4-yl)-8-(6-(2-(pyrrolidin-1-yl)ethylamino)pyridin-3-yl)quinazolin-2-ylamino)benzenesulfonamide]: the EC50 with PC-3 cells (PC-3, PC3 cells) was < 5 µM. Moreover, the IC50 at PDK1 kinase was < 5 µM.

As for `CC(C)NCc1cncc(-c2cccc3cnc(Nc4ccc(S(N)(=O)=O)cc4)nc23)c1` [Compound 946, 4-(8-(5-((isopropylamino)methyl)pyridin-3-yl)quinazolin-2-ylamino)benzenesulfonamide], in the assay on PC-3 cells (PC-3, PC3 cells), the EC50 is < 5 µM. Further, the IC50 at PDK1 kinase is < 5 µM.

In the case of `NC(=O)C1CCN(Cc2cncc(-c3cccc4cnc(Nc5ccc(S(N)(=O)=O)cc5)nc34)c2)CC1` [Compound 947, 1-((5-(2-(4-sulfamoylphenylamino)quinazolin-8-yl)pyridin-3-yl)methyl)piperidine-4-carboxamide], the EC50 with PC-3 cells (PC-3, PC3 cells) is 5 to 10 µM. For the same compound, the half-inhibitory concentration (IC50) on PDK1 kinase is < 5 µM.

On to `NS(=O)(=O)c1ccc(Nc2ncc3cccc(-c4cncc(CNC5CCOCC5)c4)c3n2)cc1` [Compound 948, 4-(8-(5-((tetrahydro-2H-pyran-4-ylamino)methyl)pyridin-3-yl)quinazolin-2-ylamino)benzenesulfonamide], for which the EC50 with PC-3 cells (PC-3, PC3 cells) was < 5 µM. Further, the IC50 on PDK1 kinase was < 5 µM.

Turning to `CC(=O)N1CCN(Cc2cncc(-c3cccc4cnc(Nc5ccc(S(N)(=O)=O)cc5)nc34)c2)CC1` [Compound 949, 4-(8-(5-((4-acetylpiperazin-1-yl)methyl)pyridin-3-yl)quinazolin-2-ylamino)benzenesulfonamide], the EC50 in the assay with PC-3 cells (PC-3, PC3 cells) lay in the range of 5 to 10 µM. In addition, the IC50 at PDK1 kinase is < 5 µM.

On to `CN(Cc1cncc(-c2cccc3cnc(Nc4ccc(S(N)(=O)=O)cc4)nc23)c1)C1CCOCC1` [Compound 950, 4-(8-(5-((methyl(tetrahydro-2H-pyran-4-yl)amino)methyl)pyridin-3-yl)quinazolin-2-ylamino)benzenesulfonamide], for which the EC50 with PC-3 cells (PC-3, PC3 cells) was < 5 µM. Also, at PDK1 kinase, the half-inhibitory concentration (IC50) is < 5 µM.

For `CN(C)[C@@H]1CCN(c2ccc(-c3cccc4cnc(Nc5ccc(S(N)(=O)=O)cc5)nc34)cn2)C1` [Compound 951, (R)-4-(8-(6-(3-(dimethylamino)pyrrolidin-1-yl)pyridin-3-yl)quinazolin-2-ylamino)benzenesulfonamide], in the assay with PC-3 cells (PC-3, PC3 cells), the EC50 was < 5 µM. Moreover, the IC50 at PDK1 kinase is < 5 µM.

The record behind these values is patent US7932262B2 (Novartis AG, priority 2006, dated 2011).
